These results are taken from US9044481B2 (GlaxoSmithKline Biologicals S.A., priority 2009, dated 2015).

In this experiment the test system is C57BL/6 female mice. Description: Innate cytokines and chemokines in sera of vaccinated mice (SIV-p27 model, AS01B + TLR7-L liposomes). Type of experiment: in vivo. To be noted: for IL-6 in sera / TNF-α in sera / chemokine MCP-1 in sera: after injection, DPPC liposomes with SIV-p27 and AS01B, vs AS01B reference group. The source says: We evaluated the capacity of TLR7 ligands to promote various aspects of the immune response in mice. Innate immunity was specifically investigated to conclude whether lipidated TLR7 compounds were able to induce innate chemokines and pro-inflammatory cytokines. This innate immune response provides the body with initial, non-specific protection against pathogens. Among these innate chemokines and cytokines, type I IFN is thought to be required for the programming of naïve CD8 T-cell with respect to survival, differentiation and memory development.
10.4 ml of lipidated-TLR7-L A1 at 10 mg/ml in chloroform were transferred into a round-bottomed glass vial. To this vial were added 18.4 ml of DPPC solubilised in chloroform at 100 mg/ml. 21.9 ml of lipidated-TLR7-L compound A3 solubilized at 5 mg/ml in chloroform were transferred into a round-bottomed glass vial. To this vial were added 20 ml of DPPC solubilised in chloroform at 100 mg/ml. Chloroform was evaporated in a Büchi Rotavapor under slow decrease of pressure. The obtained film was further dessicated at least overnight in a dessicator under vacuum. After that, the lipid film was slowly hydrated on an orbital shaker (maximal speed: 250 rpm) using 50 mM PO4-100 mM NaCl, pH 7 buffer pre-heated at 60° C.
After completion of resuspension, a swelling step was carried out in order to further increase the phospholipid hydration, it consists of incubating the preparation at room temperature. The suspension was then pre-homogenized using a rotor-stator homogenizer (X620 CAT) for 12 min at 8000 rpm.
Microfluidization was then carried out using a microfluidizer (Model 110S-Serial 90181-Microfluidics Corporation) at 6 bars while keeping the microfluidization chamber at about 40° C. Sterile filtration was achieved on a PES filter (GD/X 0.2 μm, 25 mm, Whatman).
Lipidated molecules A3 and A1 were evaluated in vivo. The SIV-p27-containing formulations summarized in Table 1 were used to vaccinate 6-8 week old C57BL/6 female mice (10/group). The mice received two intramuscular injections of 50 μl, 14 days apart and were bled at different time points after prime and boost as illustrated in FIG. 1.
The innate and adaptive immune responses induced by the formulations containing the TLR7 agonists and the proprietary AS01B adjuvant (QS21+MPL) were also compared to the one induced by the corresponding AS01B-containing formulations and empty DPPC liposomes.

Consider `CCCCCCCCCCCCCCCC(=O)OC[C@H](COP(=O)(O)OCCN1CCC(Cn2c(O)nc3c(N)nc(OCCCC)nc32)CC1)OC(=O)CCCCCCCCCCCCCCC` [Compound A1], for which the IL-6 in sera entry is “enhanced”, the TNF-α in sera result is listed as “enhanced” and the “chemokine MCP-1 in sera” value is “enhanced”. Under “comparison of A1 and A3 in DPPC liposome formulations”, the “relative potency in enhancing inflammatory cytokines TNF-α and IL-6” value is “more potent than A3”.
As for `CCCCCCCCCCCCCCCC(=O)OC[C@H](COP(=O)(O)N1CCN(CCn2c(O)nc3c(N)nc(OCCCC)nc32)CC1)OC(=O)CCCCCCCCCCCCCCC` [Compound A3, 6-Amino-2-butoxy-9-[1-(1,2-dipalmitoyl-sn-glycero-3-phosphoramido)-4-piperazinylethyl]-8-hydroxypurine], the IL-6 in sera result is listed as “enhanced”, the TNF-α in sera result is “enhanced” and the “chemokine MCP-1 in sera” value is reported as “enhanced”.
